In the supplement of paper PMC11061612:

Key:
Test in all cases: Bliss excess, mean over the matrix (fraction); higher = more synergy
[1] = system: LB771-HNC (Head and Neck Carcinoma)
Outline: (§1)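 Cell lines grown in DMEM/F12 or RPMI with 10% FBS were plated in 1536-well plates and held 24 hours at 37°C, 5% CO2 before 72 hours of exposure to two-drug dose matrices, with DMSO typically at 0.2%. CellTiter-Glo 2.0 luminescence gave viability, which was converted to inhibition. Vehicle wells were set to 0 and blank wells to 1. Combination Emax is the second-highest inhibition in the matrix, and Bliss excess is the observed combination effect minus the expected EA + EB − EA·EB, where EA and EB are the single-agent effects.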

[2] = system: OC-314 (Ovarian Carcinoma)
Outline: as §1

[3] = system: NCI-H28 (Mesothelioma)
Outline: as §1

[4] = system: HCC-15 (Squamous Cell Lung Carcinoma)
Outline: as §1

[5] = system: NCI-H2795 (Mesothelioma)
Outline: as §1

[6] = system: 639-V (Bladder Carcinoma)
Outline: as §1

[7] = system: LoVo (Colorectal Carcinoma)
Outline: as §1

[8] = system: RKO (Colorectal Carcinoma)
Outline: as §1

[9] = system: UMC-11 (Other Solid Carcinomas)
Outline: as §1

[10] = system: CTB-1 (B-Cell Non-Hodgkin's Lymphoma)
Outline: as §1

[11] = system: SW1271 (Small Cell Lung Carcinoma)
Outline: as §1

[12] = system: LU-139 (Small Cell Lung Carcinoma)
Outline: as §1

[13] = system: EN (Endometrial Carcinoma)
Outline: as §1

[14] = system: NCI-H747 (Colorectal Carcinoma)
Outline: as §1

[15] = system: KYSE-410 (Esophageal Squamous Cell Carcinoma)
Outline: as §1

[16] = system: TE-4 (Esophageal Squamous Cell Carcinoma)
Outline: as §1

[17] = system: SH-4 (Melanoma)
Outline: as §1

[18] = system: SW626 (Colorectal Carcinoma)
Outline: as §1

[19] = system: NB14 (Neuroblastoma)
Outline: as §1

[20] = system: MHH-PREB-1 (B-Cell Non-Hodgkin's Lymphoma)
Outline: as §1

Row | SMILES | Bliss excess [1] | Bliss excess [2] | Bliss excess [3] | Bliss excess [4] | Bliss excess [5] | Bliss excess [6] | Bliss excess [7] | Bliss excess [8] | Bliss excess [9] | Bliss excess [10] | Bliss excess [11] | Bliss excess [12] | Bliss excess [13] | Bliss excess [14] | Bliss excess [15] | Bliss excess [16] | Bliss excess [17] | Bliss excess [18] | Bliss excess [19] | Bliss excess [20]
1 | CN(C)CCCOc1ccc(-c2ccc3ncc4c(c3c2)n(C2CCOCC2)c(=O)n4C)cn1 [AZD0156] + CCN(CCO)CCCOc1ccc2c(Nc3cc(CC(=O)Nc4cccc(F)c4)[nH]n3)ncnc2c1 [AZD2811] (first compound max 1 µM, 7x7, partner max 1 µM) | -0.0498 | 0.0078 | -0.0381 | -0.0506 | 0.0025 | 0.0064 | 0.0047 | 0.014 | -0.0622 | 0.002 | -0.0322 | -0.0441 | 0.0456 | -0.02 | -0.0431 | -0.0129 | -0.0328 | -0.0392 | -0.0955 | 0.0053
2 | CC1(C)CCC(CN2CCN(c3ccc(C(=O)NS(=O)(=O)c4ccc(NCC5CCOCC5)c([N+](=O)[O-])c4)c(Oc4cnc5[nH]ccc5c4)c3)CC2)=C(c2ccc(Cl)cc2)C1 [Venetoclax] + Cc1cc2ncnn2cc1Nc1ncc2c(n1)n(C1CCOCC1)c(=O)n2C [AZD7648] (first compound max 1 µM, 7x7, partner max 10 µM) | -0.006 | -0.0115 | -0.0166 | -0.0033 | -0.0113 | -0.0501 | -0.0526 | -0.0396 | -0.0465 | -0.0638 | -0.115 | -0.0013 | -0.0233 | -0.0124 | -0.0471 | -0.0106 | -0.0039 | -0.0098 | -0.0033 | 0.0028
3 | CCN(CCO)CCCOc1ccc2c(Nc3cc(CC(=O)Nc4cccc(F)c4)[nH]n3)ncnc2c1 [AZD2811] + C[C@@H]1COCCN1C2=NC(=NC(=C2)C3(CC3)[S@](=N)(=O)C)C4=C5C=CNC5=NC=C4 [AZD6738] (first compound max 1 µM, 7x7, partner max 10 µM) | -0.0492 | 0.0052 | -0.0554 | -0.0238 | -0.0517 | -0.0164 | -0.104 | -0.0152 | -0.0488 | -0.0826 | -0.0829 | -0.108 | -0.0866 | -0.044 | -0.0514 | -0.047 | -0.0474 | -0.0724 | -0.0888 | -0.0608
4 | COc1cccc(OCCCN)c1-c1cc(Nc2cnc(C#N)cn2)n[nH]1 [Prexasertib] + Cc1cc2ncnn2cc1Nc1ncc2c(n1)n(C1CCOCC1)c(=O)n2C [AZD7648] (first compound max 1 µM, 7x7, partner max 10 µM) | -0.0088 | -0.0286 | -0.0397 | 0.0328 | -0.0556 | -0.0051 | -0.0687 | -0.0193 | -0.0692 | -0.0352 | -0.0014 | -0.015 | -0.0753 | 0.0085 | -0.0267 | -0.003 | -0.0545 | 0.0236 | -0.0047 | -0.0322
5 | Cc1c2c(nn1C)CSCc1cc(n(C)n1)CSc1cc(c3ccccc3c1)OCCCc1c(C(=O)O)n(C)c3c-2c(Cl)ccc13 [AZD5991] + Cc1cc2ncnn2cc1Nc1ncc2c(n1)n(C1CCOCC1)c(=O)n2C [AZD7648] (first compound max 1 µM, 7x7, partner max 10 µM) | -0.0251 | 0.0063 | -0.0051 | -0.0436 | -0.0168 | -0.005 | -0.0356 | -0.0301 | -0.0716 | -0.0345 | -0.0308 | -0.013 | -0.056 | -0.0703 | -0.0184 | -0.025 | -0.0079 | -0.0069 | -0.0505 | -0.0029
6 | Cc1c2c(nn1C)CSCc1cc(n(C)n1)CSc1cc(c3ccccc3c1)OCCCc1c(C(=O)O)n(C)c3c-2c(Cl)ccc13 [AZD5991] + C=CCn1c(=O)c2cnc(Nc3ccc(N4CCN(C)CC4)cc3)nc2n1-c1cccc(C(C)(C)O)n1 [AZD1775] (first compound max 1 µM, partner max 1 µM) | 0.0271 | 0.0319 | -0.0023 | 0.001 | 0.0734 | 0.0854 | -0.064 | -0.0002 | -0.0732 | -0.0417 | -0.0385 | -0.0421 | -0.0038 | -0.0103 | 0.0218 | 0.0115 | 0.101 | 0.0446 | -0.0137 | 0.0023
7 | Cc1c2c(nn1C)CSCc1cc(n(C)n1)CSc1cc(c3ccccc3c1)OCCCc1c(C(=O)O)n(C)c3c-2c(Cl)ccc13 [AZD5991] + CCN(CCO)CCCOc1ccc2c(Nc3cc(CC(=O)Nc4cccc(F)c4)[nH]n3)ncnc2c1 [AZD2811] (first compound max 1 µM, 7x7, partner max 1 µM) | 0.0432 | 0.0457 | 0.0191 | -0.0144 | 0.041 | 0.0649 | -0.0257 | 0.0201 | -0.0037 | -0.0167 | -0.0403 | 0.0672 | 0.0145 | -0.0133 | 0.045 | 0.063 | 0.0439 | 0.0141 | 0.0085 | 0.0147
8 | CC1(C)CCC(CN2CCN(c3ccc(C(=O)NS(=O)(=O)c4ccc(NCC5CCOCC5)c([N+](=O)[O-])c4)c(Oc4cnc5[nH]ccc5c4)c3)CC2)=C(c2ccc(Cl)cc2)C1 [Venetoclax] + C1CN(CCC1(C(=O)N[C@@H](CCO)C2=CC=C(C=C2)Cl)N)C3=NC=NC4=C3C=CN4 [Capivasertib] (first compound max 1 µM, 7x7, partner max 3 µM) | -0.008 | -0.0017 | -0.0848 | -0.0286 | -0.111 | -0.108 | -0.0419 | -0.0173 | -0.038 | -0.045 | -0.105 | -0.0467 | -0.0656 | -0.0537 | -0.0427 | -0.0421 | -0.0592 | -0.018 | -0.0461 | -0.0398
9 | CN(C)CCCOc1ccc(-c2ccc3ncc4c(c3c2)n(C2CCOCC2)c(=O)n4C)cn1 [AZD0156] + C[C@@H]1COCCN1C2=NC(=NC(=C2)C3(CC3)[S@](=N)(=O)C)C4=C5C=CNC5=NC=C4 [AZD6738] (first compound max 1 µM, 7x7, partner max 10 µM) | -0.025 | 0.0095 | -0.0606 | -0.0021 | -0.0643 | 0.0109 | -0.0191 | 0.0186 | -0.0176 | -0.063 | 0.0015 | -0.0323 | -0.0073 | -0.0103 | -0.0201 | 0.0507 | 0.0052 | -0.0214 | -0.0448 | 0.0147
10 | C=CCn1c(=O)c2cnc(Nc3ccc(N4CCN(C)CC4)cc3)nc2n1-c1cccc(C(C)(C)O)n1 [AZD1775] + O=C(c1cc(Cc2n[nH]c(=O)c3ccccc23)ccc1F)N1CCN(C(=O)C2CC2)CC1 [Olaparib] (first compound max 1 µM, partner max 10 µM) | -0.0622 | 0.0291 | -0.0568 | -0.0004 | -0.0182 | 0.0085 | -0.0313 | -0.0119 | 0.0135 | -0.0921 | -0.0488 | -0.0775 | -0.0469 | 0.0175 | -0.04 | 0.0271 | -0.0882 | -0.0526 | -0.0306 | -0.0311
11 | CC1(C)CCC(CN2CCN(c3ccc(C(=O)NS(=O)(=O)c4ccc(NCC5CCOCC5)c([N+](=O)[O-])c4)c(Oc4cnc5[nH]ccc5c4)c3)CC2)=C(c2ccc(Cl)cc2)C1 [Venetoclax] + CCN(CCO)CCCOc1ccc2c(Nc3cc(CC(=O)Nc4cccc(F)c4)[nH]n3)ncnc2c1 [AZD2811] (first compound max 1 µM, 7x7, partner max 1 µM) | -0.028 | -0.0071 | -0.0346 | -0.0209 | -0.0581 | -0.0262 | -0.0359 | 0.0096 | -0.0398 | -0.118 | -0.0483 | 0.0596 | -0.0017 | -0.0429 | -0.0234 | -0.005 | -0.0115 | -0.0394 | -0.0361 | -0.0052
12 | CCN(CCO)CCCOc1ccc2c(Nc3cc(CC(=O)Nc4cccc(F)c4)[nH]n3)ncnc2c1 [AZD2811] + C=CCn1c(=O)c2cnc(Nc3ccc(N4CCN(C)CC4)cc3)nc2n1-c1cccc(C(C)(C)O)n1 [AZD1775] (first compound max 1 µM, partner max 1 µM) | -0.0295 | 0.0976 | -0.0541 | -0.0049 | -0.0117 | 0.0509 | -0.0731 | -0.0625 | 0.0014 | 0.0011 | -0.02 | -0.0426 | -0.0426 | -0.0538 | -0.0179 | -0.0057 | -0.0484 | -0.0443 | -0.0236 | -0.0254
13 | CC1(C)CCC(CN2CCN(c3ccc(C(=O)NS(=O)(=O)c4ccc(NCC5CCOCC5)c([N+](=O)[O-])c4)c(Oc4cnc5[nH]ccc5c4)c3)CC2)=C(c2ccc(Cl)cc2)C1 [Venetoclax] + CN(C)CCCOc1ccc(-c2ccc3ncc4c(c3c2)n(C2CCOCC2)c(=O)n4C)cn1 [AZD0156] (first compound max 1 µM, 7x7, partner max 1 µM) | -0.0215 | 0.008 | -0.0547 | -0.0196 | 0.0332 | 0.02 | -0.0251 | 0.0566 | -0.0004 | -0.024 | -0.0283 | 0.0014 | -0.0832 | -0.0497 | -0.0377 | -0.0191 | -0.0087 | -0.0381 | -0.0017 | 0.0029
14 | COc1cccc2c1C(=O)c1c(O)c3c(c(O)c1C2=O)C[C@@](O)(C(=O)CO)C[C@@H]3O[C@H]1C[C@H](N)[C@H](O)[C@H](C)O1 [Doxorubicin] + Cc1cc2ncnn2cc1Nc1ncc2c(n1)n(C1CCOCC1)c(=O)n2C [AZD7648] (first compound max 1 µM, 7x7, partner max 10 µM) | -0.035 | 0.105 | -0.0177 | 0.0127 | 0.0227 | 0.117 | 0.0105 | 0.0473 | 0.07 | 0.077 | 0.0452 | 0.0476 | 0.0108 | 0.0388 | -0.0448 | -0.0039 | 0.024 | 0.0033 | 0.0203 | 0.0891
